The results in this text go back to patent US20240261474A1, “BIODEGRADABLE TISSUE SCAFFOLD WITH SECONDARY MATRIX TO HOST WEAKLY ADHERENT CELLS” (THE U.S.A., as represented by the Secretary, Department of …, priority 2021, published 2024).

Entries after “also recorded” stand apart in the source; their conditions may differ.

One assay has as its system acid phosphatase. Briefly: Acid phosphatase activity in lysates of treated RPE cells (p-nitrophenyl phosphate). The note with it: compared with DMSO- or endo-IWR-1-treated cells. It is filed as cell-based, human. The method, then:
Acid phosphatase has higher expression in the macula (Boulton et al., Br. J. Opthalm. 78:125-9, doi: 10.1136/bjo.78.2.125, 1994). This enzyme has an important role in photoreceptor outer segment digestion. The acid phosphatase activity was determined in cells treated with DMSO, AGN 193109 or endo-IWR-1. RPE cells were lysed in distilled water to extract the enzyme. The lysates were then incubated with p-nitrophenyl phosphate, a phosphatase substrate that turn yellow when dephosphorylated by acid phosphatase. The color of the solution was measured with a spectrophotometer to estimate the enzyme activity.

For a further assay, the system named is iPSC-RPE cells. Briefly: Phagocytosis test with labelled bovine outer segments, flow cytometry. It is filed as cell-based, human. The conditions noted are these: 4 hours incubation with outer segments; One-way ANOVA showed no difference. The procedure: iPSC-RPE cells were provided purified bovine outer segment (mostly rod photoreceptors) to phagocytose. The outer segments were labelled with a dye that fluoresce when the outer segments are phagocytosed. RPE cells were incubated for 4 hours with outer segments and then analyzed with flow cytometry to measure outer segment ingestion or put back in the incubator for 20 hours before performing flow cytometry to measure outer segment digestion.

Consider `Cc1ccc(C2=CCC(C)(C)c3ccc(C#Cc4ccc(C(=O)O)cc4)cc32)cc1` [AGN 193109, 4-[2-[5,6-Dihydro-5,5-dimethyl-8-(4-methylphenyl)-2-naphthalenyl]ethynyl]-benzoic acid], for which the acid phosphatase activity entry with acid phosphatase is “higher acid phosphatase activity than DMSO- or endo-IWR-1-treated cells; also recorded: higher acid phosphatase activity”.
As for `O=C(Nc1cccc2cccnc12)c1ccc(N2C(=O)C3C4C=CC(C4)C3C2=O)cc1` (stereo not drawn) [ENDO-1-IWR, 4-(1,3,3a,4,7,7a-Hexahydro-1,3-dioxo-4,7-methano-2H-isoindol-2-yl)-N-8-quinolinyl-Benzamide], in the assay with iPSC-RPE cells, the outer segment ingestion result is reported as “ingest (peripheral cells) more outer segments”.
